Data: patent US20040121946A9, “Inducing cellular immune responses to her2/neu using peptide and nucleic acid compositions” (priority 2002, published 2004)
Where no end group is shown, it is not given here.

Experiments:
DRB1*0701 (DR7) = DRB1*0701 (DR7) (Homo sapiens, UniProt P01903+P01911, A100R/A102G/A103Q/D57E/D86V/E43K/F76Y/K127E/L162R/M171V/P40G/Q125H/Q99D/R33Q/R42Y/R54Q/S133A/S66F/T210M/V115G/Y107V/Y59L/Y89S); test: HLA class II peptide binding assay, purified HLA; conditions: unit not given
[1] = system: HLA-DR molecules (DR1, DR4w4, DR7, DRB5*0101, DRB1*1501, DRB1*1101, DRB1*0802, DRB1*1302); test: DR supertype cross-reactive binding; design: species or system human; conditions: for DR147 Cross-binding: Table XXVIII
DRB1*0101 (DR1) = DRB1*0101 (DR1) (Homo sapiens, UniProt P01903+P01911, A100R/D57E/F55L/F60I/F76Y/I96L/L162R/M171V/P40L/Q125E/R42F/V115G/Y59C); test: HLA class II peptide binding assay, purified HLA; conditions: unit not given
DRB1*0401 (DR4w4) = DRB1*0401 (DR4w4) (Homo sapiens, UniProt P01903+P01911, A100K/A169T/F76Y/I96L/K127E/L162R/M171V/N62H/P40V/Q125Y/R42H/S133A/S149N/S66Y/V115G/V209L/W38E); test: HLA class II peptide binding assay, purified HLA; conditions: unit not given
DRB1*1302 (DR6w19) = DRB1*1302 (DR6w19) (Homo sapiens, UniProt P01903+P01911, A100E/A169T/K41T/L162R/M171V/P40S/Q125H/Q178H/Q39Y/Q99D/R42S/S66N/T262R/V115G/W38E/Y61H); test: HLA class II peptide binding assay, purified HLA; conditions: Table XXIX; read-out: DR6w19 nM
DRB1*1101 (DR5w11) = DRB1*1101 (DR5w11) (Homo sapiens, UniProt P01903+P01911, A100R/A169T/A87E/I96F/K41T/L162R/M171V/P40S/Q125H/Q178H/Q39Y/Q99D/R42S/S66Y/T262R/V115G/W38E); test: HLA class II peptide binding assay, purified HLA; conditions: Table XXa, DR 3a motif peptides; unit not given
[2] = Table XIX, DR supermotif peptides
[3] = number of DR1, DR4w4, DR7 bound
[4] = Table XXa, DR 3a motif peptides

Row | Molecule | DR7 binding data (DRB1*0701 (DR7); [2]) | DR147 Cross-binding [1, 3] | DR1 binding data (DRB1*0101 (DR1); [2]) | DR4w4 binding data (DRB1*0401 (DR4w4); [2]) | also measured
1 | IKVLRENTSPKANKE | −0.0011 | 0 | −0.0005 | −0.0032 | –
2 | LTSHSAVVGILLVV | 0.0049 | – | 0.1900 | −0.0025 | –
3 | DMKLRLPASPETHLD | −0.0013 | 0 | 0.0010 | −0.0025 | –
4 | CC[C@H](C)[C@H](NC(=O)[C@@H]1CCCN1)C(=O)N[C@@H](CCCCN)C(=O)N[C@@H](Cc1c[nH]c2ccccc12)C(=O)N[C@@H](CCSC)C(=O)N[C@@H](C)C(=O)N[C@@H](CC(C)C)C(=O)N[C@@H](CCC(=O)O)C(=O)N[C@@H](CO)C(=O)N[C@H](C(=O)N[C@@H](CC(C)C)C(=O)N[C@@H](CCCNC(=N)N)C(=O)N[C@@H](CCCNC(=N)N)C(=O)N[C@@H](CCCNC(=N)N)C(=O)N[C@@H](Cc1ccccc1)C(=O)O)[C@@H](C)CC | 0.0078 | 1 | 0.7900 | 0.0350 | –
5 | CC(C)C[C@H](NC(=O)[C@H](CCC(=O)O)NC(=O)[C@@H](NC(=O)[C@@H](N)CCC(=O)O)[C@@H](C)O)C(=O)N[C@@H](CCCNC(=N)N)C(=O)N[C@@H](CCCCN)C(=O)N[C@H](C(=O)N[C@@H](CCCCN)C(=O)N[C@H](C(=O)N[C@@H](CC(C)C)C(=O)NCC(=O)N[C@@H](CO)C(=O)NCC(=O)N[C@@H](C)C(=O)N[C@@H](Cc1ccccc1)C(=O)O)C(C)C)C(C)C | – | 2 | – | – | IC50 (DRB1*1302 (DR6w19)): 2500 nM; DR147 Binding ([1]; number of DR1, DR4w4, DR7 bound, Table XXIX): 2; Broad Binding (5/8) ([1]; number of the 8 DR alleles bound): 2
6 | LLVVVLGVVFGILIK | 0.0019 | 0 | −0.0008 | −0.0025 | –
7 | CSCC[C@H](NC(=O)[C@H](CC(C)C)NC(=O)[C@H](CCC(=O)O)NC(=O)[C@H](Cc1c[nH]c2ccccc12)NC(=O)[C@@H](NC(=O)[C@@H](NC(=O)[C@@H](NC(=O)CN)C(C)C)[C@@H](C)O)C(C)C)C(=O)N[C@H](C(=O)N[C@@H](Cc1ccccc1)C(=O)NCC(=O)N[C@@H](C)C(=O)N[C@@H](CCCCN)C(=O)N1CCC[C@H]1C(=O)N[C@@H](Cc1ccc(O)cc1)C(=O)O)[C@@H](C)O | 0.0170 | 1 | – | 0.0330 | –
8 | QGFFCPDPAPGAGGM | −0.0011 | 0 | −0.0005 | 0.0230 | DR7 binding data (DRB1*0701 (DR7); [4]): −0.0011; DR1 binding data (DRB1*0101 (DR1); [4]): −0.0005; DR4w4 binding data (DRB1*0401 (DR4w4); [4]): 0.0230
9 | VCPLHNQEVTAEDGT | −0.0013 | 0 | −0.0004 | −0.0025 | –
10 | CC[C@H](C)[C@H](NC(=O)[C@H](CCC(=O)O)NC(=O)[C@@H](N)CCCCN)C(=O)N[C@@H](CC(C)C)C(=O)N[C@@H](CC(=O)O)C(=O)N[C@@H](CCC(=O)O)C(=O)N[C@@H](C)C(=O)N[C@@H](Cc1ccc(O)cc1)C(=O)N[C@H](C(=O)N[C@@H](CCSC)C(=O)N[C@@H](C)C(=O)NCC(=O)N[C@H](C(=O)NCC(=O)N[C@@H](CO)C(=O)O)C(C)C)C(C)C | −0.0011 | 0 | 0.0036 | 0.0073 | –
11 | ETELVEPLTPSGAMP | −0.0013 | 1 | 0.0060 | −0.0025 | –
12 | CC(C)C[C@H](NC(=O)[C@H](C)NC(=O)[C@H](Cc1ccc(O)cc1)NC(=O)[C@H](CC(N)=O)NC(=O)[C@H](CC(=O)O)NC(=O)[C@H](CCC(=O)O)NC(=O)[C@H](Cc1ccccc1)NC(=O)[C@H](CC(C)C)NC(=O)[C@H](CCC(N)=O)NC(=O)[C@@H](N)[C@@H](C)O)C(=O)N[C@@H](C)C(=O)N[C@H](C(=O)N[C@@H](CC(C)C)C(=O)N[C@@H](CC(=O)O)C(=O)N[C@@H](CC(N)=O)C(=O)O)C(C)C | 0.0160 | 1 | 0.0530 | −0.0025 | –
13 | CSCC[C@H](NC(=O)[C@H](CC(=O)O)NC(=O)[C@@H](NC(=O)CN)[C@@H](C)O)C(=O)N[C@@H](CCCCN)C(=O)N[C@@H](CC(C)C)C(=O)N[C@@H](CCCNC(=N)N)C(=O)N[C@@H](CC(C)C)C(=O)N1CCC[C@H]1C(=O)N[C@@H](C)C(=O)N[C@@H](CO)C(=O)N1CCC[C@H]1C(=O)N[C@@H](CCC(=O)O)C(=O)N[C@H](C(=O)N[C@@H](Cc1c[nH]cn1)C(=O)O)[C@@H](C)O | −0.0013 | 0 | 0.0010 | −0.0025 | –
14 | CC[C@H](C)[C@H](NC(=O)[C@@H]1CCCN1C(=O)[C@H](CCSC)NC(=O)[C@H](Cc1ccc(O)cc1)NC(=O)[C@H](CO)NC(=O)[C@H](CC(C)C)NC(=O)[C@H](CC(=O)O)NC(=O)[C@@H]1CCCN1C(=O)[C@@H](N)CCCCN)C(=O)N[C@@H](Cc1c[nH]c2ccccc12)C(=O)N[C@@H](CCCCN)C(=O)N[C@@H](Cc1ccccc1)C(=O)N1CCC[C@H]1C(=O)N[C@@H](CC(=O)O)C(=O)N[C@@H](CCC(=O)O)C(=O)O | – | 1 | – | −0.0025 | –
15 | VVGILLVVVLGVVFG | −0.0013 | 0 | −0.0004 | −0.0025 | –
16 | QPDVRPQPPSPREGP | −0.0011 | 0 | 0.0007 | −0.0032 | –
17 | VEPLTPSGAMPNQAQ | −0.0011 | 0 | −0.0008 | −0.0025 | –
18 | TDGYVAPLTCSPQPE | −0.0011 | 0 | −0.0005 | −0.0032 | –
19 | CC[C@H](C)[C@H](NC(=O)[C@H](CC(C)C)NC(=O)[C@H](C)NC(=O)[C@H](CC(C)C)NC(=O)CNC(=O)[C@H](CO)NC(=O)CNC(=O)[C@H](CC(C)C)NC(=O)[C@H](CCC(=O)O)NC(=O)[C@H](CCCNC(=N)N)NC(=O)[C@@H](N)CC(C)C)C(=O)N[C@@H](Cc1c[nH]cn1)C(=O)N[C@@H](Cc1c[nH]cn1)C(=O)N[C@@H](CC(N)=O)C(=O)N[C@H](C(=O)O)[C@@H](C)O | −0.0013 | 1 | 0.0310 | −0.0025 | –
20 | ITDFGLARLLDIDET | −0.0011 | 0 | 0.0048 | −0.0032 | –
21 | CC[C@H](C)[C@H](NC(=O)[C@H](CC(C)C)NC(=O)[C@H](C)NC(=O)[C@@H](N)CC(C)C)C(=O)N[C@@H](Cc1c[nH]cn1)C(=O)N[C@@H](Cc1c[nH]cn1)C(=O)N[C@@H](CC(N)=O)C(=O)N[C@H](C(=O)N[C@@H](Cc1c[nH]cn1)C(=O)N[C@@H](CC(C)C)C(=O)N[C@@H](CS)C(=O)N[C@@H](Cc1ccccc1)C(=O)N[C@H](C(=O)N[C@@H](Cc1c[nH]cn1)C(=O)N[C@H](C(=O)O)[C@@H](C)O)C(C)C)[C@@H](C)O | – | – | – | – | DR5w11 binding data (DRB1*1101 (DR5w11)): 0.0025
22 | PSTFKGTPTAENPEY | −0.0011 | 0 | −0.0005 | −0.0032 | –
